# Laboratory results taken from ChEMBL document CHEMBL1914398, “Synthesis and evaluation of novel N-fluoropyridyl derivatives of tropane as potential PET imaging agents for the dopamine transporter” (Bioorg Med Chem Lett, 2011).
# How the values were obtained:
# [1] = target: Sodium-dependent dopamine transporter (Homo sapiens, UniProt Q01959); assay: Displacement of [125I]-IPT from DAT transfected in pig LLC-PK1 cells by radioligand competition binding assay; format: cell-based
# [2] = target: Sodium-dependent serotonin transporter (Homo sapiens, UniProt P31645); assay: Displacement of [125I]-IDAM from SERT transfected in pig LLC-PK1 cells by radioligand competition binding assay; format: cell-based
# [3] = Selectivity ratio of Ki for NET to Ki for DAT
# [4] = target: Sodium-dependent noradrenaline transporter (Homo sapiens, UniProt P23975); assay: Displacement of [125I]-INXT from NET transfected in pig LLC-PK1 cells by radioligand competition binding assay; format: cell-based
# [5] = Selectivity ratio of Ki for SERT to Ki for DAT
# Sodium-dependent dopamine transporter, sequence (Q01959 whole entry): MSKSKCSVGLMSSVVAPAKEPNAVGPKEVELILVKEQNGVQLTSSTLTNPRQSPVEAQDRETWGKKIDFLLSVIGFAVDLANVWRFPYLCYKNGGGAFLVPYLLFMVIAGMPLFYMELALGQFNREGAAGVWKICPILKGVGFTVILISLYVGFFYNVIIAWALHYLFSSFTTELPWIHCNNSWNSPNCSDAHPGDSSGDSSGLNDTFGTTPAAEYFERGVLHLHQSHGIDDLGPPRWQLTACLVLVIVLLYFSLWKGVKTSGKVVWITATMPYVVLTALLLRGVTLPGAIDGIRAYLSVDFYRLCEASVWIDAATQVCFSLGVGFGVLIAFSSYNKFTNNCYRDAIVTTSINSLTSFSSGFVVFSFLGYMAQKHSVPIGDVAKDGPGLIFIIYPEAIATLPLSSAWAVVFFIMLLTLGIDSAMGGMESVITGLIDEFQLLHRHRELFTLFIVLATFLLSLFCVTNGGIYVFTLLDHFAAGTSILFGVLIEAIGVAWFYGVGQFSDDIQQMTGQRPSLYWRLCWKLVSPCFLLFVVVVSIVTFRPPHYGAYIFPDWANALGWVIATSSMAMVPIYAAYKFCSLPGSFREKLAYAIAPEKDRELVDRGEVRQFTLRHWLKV
# Sodium-dependent noradrenaline transporter, sequence (P23975 whole entry): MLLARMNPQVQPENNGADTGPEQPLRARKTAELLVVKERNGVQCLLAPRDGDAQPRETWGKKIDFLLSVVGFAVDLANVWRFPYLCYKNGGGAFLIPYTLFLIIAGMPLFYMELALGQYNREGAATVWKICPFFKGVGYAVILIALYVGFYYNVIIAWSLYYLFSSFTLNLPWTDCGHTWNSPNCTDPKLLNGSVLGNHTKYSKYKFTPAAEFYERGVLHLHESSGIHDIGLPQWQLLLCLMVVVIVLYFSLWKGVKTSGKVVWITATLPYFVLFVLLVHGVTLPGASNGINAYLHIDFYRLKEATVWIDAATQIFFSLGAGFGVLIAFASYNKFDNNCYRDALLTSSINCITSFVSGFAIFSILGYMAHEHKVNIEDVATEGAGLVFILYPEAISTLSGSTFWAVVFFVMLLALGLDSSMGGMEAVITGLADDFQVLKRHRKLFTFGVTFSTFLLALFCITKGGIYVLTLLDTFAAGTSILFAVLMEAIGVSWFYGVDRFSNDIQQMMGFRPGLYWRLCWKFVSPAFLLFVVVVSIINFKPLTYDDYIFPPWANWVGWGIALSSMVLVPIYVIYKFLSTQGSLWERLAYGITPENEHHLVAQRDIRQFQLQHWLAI
# Sodium-dependent serotonin transporter, sequence (P31645 whole entry): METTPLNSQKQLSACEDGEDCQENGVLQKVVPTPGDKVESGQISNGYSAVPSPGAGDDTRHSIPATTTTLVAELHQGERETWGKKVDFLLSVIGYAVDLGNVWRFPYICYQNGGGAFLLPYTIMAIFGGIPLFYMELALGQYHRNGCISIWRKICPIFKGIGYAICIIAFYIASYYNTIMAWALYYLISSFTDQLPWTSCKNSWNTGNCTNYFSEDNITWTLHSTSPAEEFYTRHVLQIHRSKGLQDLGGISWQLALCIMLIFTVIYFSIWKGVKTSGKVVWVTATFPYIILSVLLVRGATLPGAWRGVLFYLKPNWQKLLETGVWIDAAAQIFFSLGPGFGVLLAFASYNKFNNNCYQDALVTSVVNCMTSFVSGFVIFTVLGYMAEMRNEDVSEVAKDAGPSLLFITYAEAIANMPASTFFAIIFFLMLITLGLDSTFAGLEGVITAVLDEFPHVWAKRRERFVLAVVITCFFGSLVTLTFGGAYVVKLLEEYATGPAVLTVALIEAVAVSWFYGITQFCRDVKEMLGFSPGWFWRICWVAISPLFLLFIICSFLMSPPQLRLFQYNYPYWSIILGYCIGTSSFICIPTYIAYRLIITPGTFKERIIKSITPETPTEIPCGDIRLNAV
structure (smiles),measurement,setting,value
CN1C2CCC1[C@@H](C(=O)Nc1ccc(Br)nc1)[C@@H](c1ccc(Cl)cc1)C2 (stereo not given in full),Ki,[1],0.106 µM
same,Ki,[2],15.3 µM
same,Ratio Ki,[3],153
same,Ki,[4],16.2 µM
same,Ratio Ki,[5],144
CN1C2CCC1[C@@H](CNc1cccc(Br)n1)[C@@H](c1ccc(Cl)cc1)C2 (stereo not given in full),Ki,[1],0.0056 µM
same,Ki,[2],0.0074 µM
same,Ratio Ki,[3],5.2
same,Ki,[4],0.0291 µM
same,Ratio Ki,[5],1.3
CN1C2CCC1[C@@H](CNc1ccc(Br)nc1)[C@@H](c1ccc(Cl)cc1)C2 (stereo not given in full),Ki,[1],0.0179 µM
same,Ki,[2],0.0105 µM
same,Ratio Ki,[3],2.7
same,Ki,[4],0.0491 µM
same,Ratio Ki,[5],0.6
